Measurements from PMC4577729, “7-(Pyrazol-4-yl)-3H-imidazo[4,5-b]pyridine-based derivatives for kinase inhibition: Co-crystallisation studies with Aurora-A reveal distinct differences in the orientation of the pyrazole N1-substituent” (Bioorganic & Medicinal Chemistry Letters, 2015).

Assays:
[1] = biological target: T1, Aurora A (Homo sapiens, UniProt O14965); assay: Aurora-A autophosphorylation at T288 in HeLa cells; assay type: cell-based; details: read-out: p-T288 IC50 (Aurora-A autophosphorylation)
T1 sequence (O14965 1-403): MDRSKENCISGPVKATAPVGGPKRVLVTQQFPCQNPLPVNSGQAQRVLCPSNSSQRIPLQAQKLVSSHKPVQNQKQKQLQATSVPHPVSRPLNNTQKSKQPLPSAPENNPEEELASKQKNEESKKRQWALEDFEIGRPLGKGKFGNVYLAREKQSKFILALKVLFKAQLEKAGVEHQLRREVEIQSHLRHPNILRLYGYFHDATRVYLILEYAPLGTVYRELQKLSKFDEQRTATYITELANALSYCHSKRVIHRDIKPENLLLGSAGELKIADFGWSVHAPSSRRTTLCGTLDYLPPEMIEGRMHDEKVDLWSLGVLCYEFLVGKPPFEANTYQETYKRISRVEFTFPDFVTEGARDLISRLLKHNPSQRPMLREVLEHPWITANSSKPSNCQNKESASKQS
Excerpt: (§1) As part of our medicinal chemistry programme to discover selective inhibitors of Aurora-A,[12] we introduced the 1-benzyl-1H-pyrazol-4-yl moiety at C7 of the imidazo[4,5-b]pyridine scaffold to provide 7a (Table 1). We previously reported 1,3-dimethyl-1H-pyrazol-4-yl as a preferred substituent at the C2 position of the imidazo[4,5-b]pyridine scaffold[11] and this moiety was therefore incorporated into the design of 7a and analogues presented in this study. […] This in vitro profile prompted us to investigate this C7-pyrazole substituted imidazo[4,5-b]pyridine subseries in more detail. Firstly, we attempted to increase biochemical potency against Aurora-A, and also to improve microsomal stability.

[2] = biological target: T2, Aurora B (Homo sapiens, UniProt Q96GD4); assay: Histone H3 phosphorylation at S10 in HeLa cells; assay type: cell-based; details: read-out: p-HH3 IC50 (histone H3 phosphorylation at S10)
Excerpt: as §1

[3] = test system: HCT116 human colon carcinoma cells; assay: HCT116 cell growth inhibition; assay type: cell-based; details: 72 h incubation
Excerpt: as §1

[4] = Protein binding in microsomal incubations (MLM); assay type: in vitro ADME, mouse
Procedure: (§2) For a better understanding of the microsomal stability data, the protein binding for 7a, 7d and 7e in microsomal incubations was measured. The percentage of 7a unbound in MLM and HLM was determined as 6.71 and 4.89, respectively. Compounds 7d and 7e were more highly bound: for 7d the percentage unbound was 0.50 in both MLM and HLM and for 7e was 0.16 and 0.10, respectively. […] The potent cell-based activity prompted us to investigate kinome selectivity profiles for this class of compound by screening 7a and 7d in a 102-kinase panel at a concentration of 1 μM.[20] […] The Gini coefficient for compound 3 was reported as 0.719,[12] and the corresponding value for compound 1 is 0.560. To understand the potential for further improvement, we obtained the crystal structure of 7a bound to Aurora-A[22] (Fig. 3, Table S3, Supplementary data). […] Similar to crystal structures of previous compounds 1, 15 and 16 (Figs. 1 and 2; compounds 51 and 40c in Ref. [10], and compound 21a in Ref. [11], respectively) the N-benzyl substituent on the C7-pyrazole is oriented towards the P-loop, making Van der Waals contacts with Val147 and Gly142 (Fig. 3).

[5] = Protein binding in microsomal incubations (HLM); assay type: in vitro ADME, human
Procedure: as §2

[6] = In vivo mouse pharmacokinetic profiling
Procedure: (§3) The mouse plasma protein binding for 7a and 7d was determined as 99.48% and >99.9%, respectively. […] In an attempt to improve the aqueous solubility, the Aurora inhibitory potency and kinase selectivity of this sub-series, we explored the introduction of basic substituents such as 1-methylpiperazine and pyrrolidine as well as replacement of the phenyl ring with a more polar heterocycle. […] It was anticipated that the introduction of small substituents on the phenyl ring in 7a would be well tolerated without altering its orientation in the kinase active site. Alternatively, we envisaged that Thr217 in Aurora-A may be accessed via an appropriate pyrazole N1-benzyl derivatisation such as a bulky amido substituent, which would form a favourable hydrogen bond interaction with the side chain hydroxyl of Thr217. Similar approaches were previously applied by us in the design of selective inhibitors of Aurora-A.[12,16]

[7] = Mouse plasma protein binding; assay type: in vitro ADME
Procedure: as §3

[8] = Kinetic solubility; assay type: physicochemical; details: phosphate buffer, pH = 6.8
Procedure: as §3
[23] Solubility measurements were performed by Pharmorphix® Solid State Services, Member of the Sigma–Aldrich Group, Cambridge, UK.

[9] = biological target: T2, Aurora B; assay: Kinase selectivity profiling; assay type: biochemical; details: 1 µM, assay duplicates
Summary of the method: (§4)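 Each compound was tested at a single concentration of 1 µM within a broad panel of 102 or 105 protein kinases run by an external profiling centre.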

[10] = biological target: EPH-B4 (Homo sapiens, UniProt P54760); assay: Kinase selectivity profiling; assay type: biochemical; details: 1 µM, assay duplicates
Summary of the method: as §4

[11] = biological target: CLK2 (Homo sapiens, UniProt P49760); assay: Kinase selectivity profiling; assay type: biochemical; details: 1 µM, assay duplicates
Procedure: (§5) [20] Kinase selectivity profiling for compounds 7a, 7d, 14d and 14g was carried out at the International Centre for Protein Kinase Profiling, Division of Signal Transduction Therapy, University of Dundee.
(§6) Table S2: Kinase selectivity profiling of compounds 14d and 14g in a 105-kinase panel screened at a concentration of 1 µM.

[12] = biological target: DAPK1 (Homo sapiens, UniProt P53355); assay: Kinase selectivity profiling; assay type: biochemical; details: 1 µM, assay duplicates
Procedure: as §5, §6

[13] = biological target: EPH-B2 (Homo sapiens, UniProt P29323); assay: Kinase selectivity profiling; assay type: biochemical; details: 1 µM, assay duplicates
Procedure: as §5, §6

T2 sequence (Q96GD4 whole entry): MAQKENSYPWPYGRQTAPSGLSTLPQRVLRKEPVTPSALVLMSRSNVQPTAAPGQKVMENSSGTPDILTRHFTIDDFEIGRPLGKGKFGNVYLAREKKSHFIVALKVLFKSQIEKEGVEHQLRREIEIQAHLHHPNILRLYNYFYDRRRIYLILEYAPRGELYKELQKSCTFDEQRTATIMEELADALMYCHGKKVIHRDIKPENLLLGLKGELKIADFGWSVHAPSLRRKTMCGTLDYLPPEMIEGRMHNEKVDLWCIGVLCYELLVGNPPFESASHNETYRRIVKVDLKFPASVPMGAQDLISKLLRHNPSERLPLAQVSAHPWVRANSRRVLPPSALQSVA
EPH-B2, sequence (P29323 19-1055): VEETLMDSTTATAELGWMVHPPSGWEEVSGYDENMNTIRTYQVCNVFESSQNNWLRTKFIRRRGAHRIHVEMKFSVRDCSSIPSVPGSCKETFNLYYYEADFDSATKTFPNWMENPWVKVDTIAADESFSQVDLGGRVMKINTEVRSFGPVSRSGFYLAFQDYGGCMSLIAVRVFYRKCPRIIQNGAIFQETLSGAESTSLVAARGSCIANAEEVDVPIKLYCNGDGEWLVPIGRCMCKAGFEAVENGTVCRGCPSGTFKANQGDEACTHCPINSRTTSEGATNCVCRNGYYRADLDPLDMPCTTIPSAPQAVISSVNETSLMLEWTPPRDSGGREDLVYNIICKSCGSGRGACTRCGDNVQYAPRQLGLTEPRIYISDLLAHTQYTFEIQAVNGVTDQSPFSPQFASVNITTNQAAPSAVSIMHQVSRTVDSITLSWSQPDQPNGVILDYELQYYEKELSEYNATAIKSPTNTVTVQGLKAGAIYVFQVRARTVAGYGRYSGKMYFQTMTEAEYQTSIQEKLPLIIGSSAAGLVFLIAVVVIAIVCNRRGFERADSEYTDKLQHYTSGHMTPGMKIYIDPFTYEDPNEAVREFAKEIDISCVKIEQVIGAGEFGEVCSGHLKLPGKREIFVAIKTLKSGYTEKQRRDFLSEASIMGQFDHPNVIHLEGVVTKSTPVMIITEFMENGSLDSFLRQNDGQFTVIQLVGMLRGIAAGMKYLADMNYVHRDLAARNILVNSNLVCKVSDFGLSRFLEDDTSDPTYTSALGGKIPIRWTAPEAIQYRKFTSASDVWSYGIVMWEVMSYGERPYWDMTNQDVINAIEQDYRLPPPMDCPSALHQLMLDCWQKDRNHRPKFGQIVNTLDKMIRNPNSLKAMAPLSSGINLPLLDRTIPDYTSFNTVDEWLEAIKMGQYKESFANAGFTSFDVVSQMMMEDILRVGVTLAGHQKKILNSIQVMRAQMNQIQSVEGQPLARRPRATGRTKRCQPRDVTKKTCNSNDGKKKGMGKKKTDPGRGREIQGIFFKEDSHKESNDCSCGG
EPH-B4, sequence (P54760 16-987): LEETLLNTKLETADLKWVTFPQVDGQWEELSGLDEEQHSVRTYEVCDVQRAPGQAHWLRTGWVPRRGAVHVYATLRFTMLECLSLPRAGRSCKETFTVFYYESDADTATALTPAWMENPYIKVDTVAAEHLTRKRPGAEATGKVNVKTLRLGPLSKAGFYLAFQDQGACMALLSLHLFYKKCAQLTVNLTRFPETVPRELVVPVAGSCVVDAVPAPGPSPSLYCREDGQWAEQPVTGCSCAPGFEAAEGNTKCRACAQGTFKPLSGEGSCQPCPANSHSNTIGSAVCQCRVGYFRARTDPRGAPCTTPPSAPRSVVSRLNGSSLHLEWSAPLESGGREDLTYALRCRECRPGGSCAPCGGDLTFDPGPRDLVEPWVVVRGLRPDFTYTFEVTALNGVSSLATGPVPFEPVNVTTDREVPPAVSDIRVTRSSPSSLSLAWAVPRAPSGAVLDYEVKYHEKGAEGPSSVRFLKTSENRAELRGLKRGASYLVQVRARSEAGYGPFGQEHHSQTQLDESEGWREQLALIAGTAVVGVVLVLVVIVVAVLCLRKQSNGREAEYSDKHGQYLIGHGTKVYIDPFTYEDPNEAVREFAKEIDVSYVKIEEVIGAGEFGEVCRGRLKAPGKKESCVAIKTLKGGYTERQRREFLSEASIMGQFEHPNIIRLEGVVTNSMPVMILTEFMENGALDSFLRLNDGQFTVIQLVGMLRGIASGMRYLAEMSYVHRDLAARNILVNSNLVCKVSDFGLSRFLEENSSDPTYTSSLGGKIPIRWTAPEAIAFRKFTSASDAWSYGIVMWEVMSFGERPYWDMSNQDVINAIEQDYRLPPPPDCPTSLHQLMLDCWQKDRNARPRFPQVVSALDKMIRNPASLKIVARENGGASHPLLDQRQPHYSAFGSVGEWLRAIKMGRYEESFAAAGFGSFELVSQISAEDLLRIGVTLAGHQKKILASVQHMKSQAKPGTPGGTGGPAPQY
CLK2, sequence (P49760 whole entry): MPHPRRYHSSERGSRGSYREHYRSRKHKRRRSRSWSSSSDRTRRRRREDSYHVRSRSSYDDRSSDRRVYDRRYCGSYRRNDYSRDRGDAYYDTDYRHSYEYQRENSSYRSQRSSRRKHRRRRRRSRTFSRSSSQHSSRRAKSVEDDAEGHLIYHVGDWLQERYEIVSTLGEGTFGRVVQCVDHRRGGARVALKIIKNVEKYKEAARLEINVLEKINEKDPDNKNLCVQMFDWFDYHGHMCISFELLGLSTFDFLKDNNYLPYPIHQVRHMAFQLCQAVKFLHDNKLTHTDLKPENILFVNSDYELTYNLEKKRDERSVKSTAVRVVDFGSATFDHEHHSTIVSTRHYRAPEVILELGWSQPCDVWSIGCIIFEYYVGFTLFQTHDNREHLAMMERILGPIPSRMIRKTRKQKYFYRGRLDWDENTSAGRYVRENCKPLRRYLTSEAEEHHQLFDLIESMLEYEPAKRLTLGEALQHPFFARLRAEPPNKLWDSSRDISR
DAPK1, sequence (P53355 whole entry): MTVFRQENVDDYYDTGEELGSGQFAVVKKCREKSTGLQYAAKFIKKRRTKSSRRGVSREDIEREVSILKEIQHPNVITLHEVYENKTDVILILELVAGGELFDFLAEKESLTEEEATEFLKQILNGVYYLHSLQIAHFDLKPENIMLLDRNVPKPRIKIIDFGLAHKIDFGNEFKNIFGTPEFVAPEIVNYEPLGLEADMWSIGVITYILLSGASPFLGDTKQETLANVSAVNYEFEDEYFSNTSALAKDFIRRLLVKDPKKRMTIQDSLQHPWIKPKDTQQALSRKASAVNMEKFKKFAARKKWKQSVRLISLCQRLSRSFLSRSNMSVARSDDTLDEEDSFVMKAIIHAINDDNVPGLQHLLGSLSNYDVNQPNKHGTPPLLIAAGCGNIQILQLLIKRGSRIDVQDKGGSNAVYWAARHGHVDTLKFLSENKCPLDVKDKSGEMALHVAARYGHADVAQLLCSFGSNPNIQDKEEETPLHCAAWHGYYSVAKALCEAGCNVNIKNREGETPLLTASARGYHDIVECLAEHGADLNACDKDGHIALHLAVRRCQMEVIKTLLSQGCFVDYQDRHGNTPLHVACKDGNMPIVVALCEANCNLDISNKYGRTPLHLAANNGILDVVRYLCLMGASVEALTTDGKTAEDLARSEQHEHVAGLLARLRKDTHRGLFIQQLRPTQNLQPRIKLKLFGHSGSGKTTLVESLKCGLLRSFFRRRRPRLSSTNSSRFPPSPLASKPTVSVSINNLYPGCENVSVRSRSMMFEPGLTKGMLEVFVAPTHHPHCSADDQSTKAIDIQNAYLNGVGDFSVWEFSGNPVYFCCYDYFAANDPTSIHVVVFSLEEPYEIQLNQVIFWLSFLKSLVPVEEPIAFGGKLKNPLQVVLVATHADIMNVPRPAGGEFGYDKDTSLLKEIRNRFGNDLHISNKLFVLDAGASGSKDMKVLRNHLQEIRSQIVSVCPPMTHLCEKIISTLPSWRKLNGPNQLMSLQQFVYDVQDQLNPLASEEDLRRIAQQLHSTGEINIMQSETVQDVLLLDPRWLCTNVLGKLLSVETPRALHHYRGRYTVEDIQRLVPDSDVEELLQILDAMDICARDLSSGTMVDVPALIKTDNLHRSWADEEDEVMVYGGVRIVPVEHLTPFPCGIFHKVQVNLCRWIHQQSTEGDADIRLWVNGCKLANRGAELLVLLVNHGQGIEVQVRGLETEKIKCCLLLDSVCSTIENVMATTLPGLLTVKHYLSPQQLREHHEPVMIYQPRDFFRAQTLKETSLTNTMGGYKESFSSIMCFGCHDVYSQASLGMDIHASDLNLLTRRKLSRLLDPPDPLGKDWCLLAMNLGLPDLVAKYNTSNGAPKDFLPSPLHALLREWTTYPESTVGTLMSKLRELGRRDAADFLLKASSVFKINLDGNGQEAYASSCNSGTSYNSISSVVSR

Compound | IC50 [1] [nM] | IC50 [2] [nM] | GI50 [3] [nM] | percentage unbound in MLM [4] [%] | percentage unbound in HLM [5] [%] | oral bioavailability [6] [%] | mouse plasma protein binding [7] [%] | kinetic solubility [8] [ng/mL] | Aurora B % activity remaining [9] [%] | EPH-B4 % activity remaining [10] [%] | CLK2 % activity remaining [11] [%] | DAPK1 % activity remaining [12] [%] | EPH-B2 % activity remaining [13] [%]
Cc1nn(C)cc1-c1nc2c(-c3cnn(Cc4ccccc4)c3)c(Cl)cnc2[nH]1 [Compound 7a] | 87 | 223 | 150 | 6.71 | 4.89 | 13 | 99.48 | < 100 | – | – | – | – | –
Cc1cc(Cn2cc(-c3c(Cl)cnc4[nH]c(-c5cn(C)nc5C)nc34)cn2)no1 [Compound 14d] | – | – | 340 | – | – | – | – | – | 8 | 86 | 2 | 24 | 60
